Data reported in US12264158B2, “Protein kinase MKK4 inhibitors for promoting liver regeneration or reducing or preventing hepatocyte death” (HEPAREGENIX GMBH, priority 2018, dated 2025).

Legend:
MKK4-MEKK2 mix = target: T1, MKK4-MEKK2 mix (Homo sapiens, UniProt P45985); assay: Radiometric protein kinase assay, MEKK2 dependent MKK4 activation (cascade); assay type: biochemical; details: substrate JNK1 KRKR, ATP 0.2 μM, read-out: Cascade, potency derived from IC50-values
T1 construct: MEKK2, recombinant, active: ProQinase product #0583-0000-1
T1 sequence (P45985 2-399): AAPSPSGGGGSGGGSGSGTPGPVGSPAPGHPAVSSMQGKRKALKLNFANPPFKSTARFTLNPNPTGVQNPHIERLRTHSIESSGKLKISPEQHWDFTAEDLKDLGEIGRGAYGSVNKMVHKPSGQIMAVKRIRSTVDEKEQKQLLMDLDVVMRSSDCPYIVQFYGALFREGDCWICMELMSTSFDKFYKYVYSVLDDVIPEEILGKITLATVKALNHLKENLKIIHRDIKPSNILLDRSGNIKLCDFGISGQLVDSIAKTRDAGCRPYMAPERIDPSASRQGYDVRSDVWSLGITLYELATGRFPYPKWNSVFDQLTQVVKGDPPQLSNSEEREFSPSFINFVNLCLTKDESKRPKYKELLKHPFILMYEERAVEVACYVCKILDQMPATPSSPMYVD
Experimental: The activation step is done in 50 mM HEPES pH 7.5, 50 mM NaCl, 3.8 mM MgCl2, 2.5 mM DTT, 10% (v/v) glycerol. Final DMSO concentration is 1%. The activation mixture is pipetted in the following order • 2.5 μl compound in 4% DMSO • 2.5 μl ATP/MgCl2 mix • 5 μl premixed kinase solution MKK4:MEKK2 10:1 (w/w)
Protein concentrations in the activation mix are 1 μM MKK4 and 50 nM MEKK2.
A radiometric protein kinase assay was used for measuring the kinase activity of the respective protein kinases. All kinase assays were performed in 96-well polypropylene plates. After the reactions were stopped, the assay mixtures were transferred to 96-well MSFC filter-plates (Millipore). The reaction mix was passed through the filter membrane by aspiration, the membrane was washed 3 times with 150 mM H3PO4, once with ethanol, dried and liquid scintillation cocktail was added. Radioactivity was determined by counting of the samples in a Microbeta multiwell scintillation counter (Wallac).

MKK7 = target: T2, MKK7 (Homo sapiens, UniProt O14733); assay: KINOMEscan competition binding assay, selectivity against off-target MKK7; details: concentration of 100 nM
T2 construct: M1/R419; host or cells: HEK-293
T2 sequence (O14733 1-419): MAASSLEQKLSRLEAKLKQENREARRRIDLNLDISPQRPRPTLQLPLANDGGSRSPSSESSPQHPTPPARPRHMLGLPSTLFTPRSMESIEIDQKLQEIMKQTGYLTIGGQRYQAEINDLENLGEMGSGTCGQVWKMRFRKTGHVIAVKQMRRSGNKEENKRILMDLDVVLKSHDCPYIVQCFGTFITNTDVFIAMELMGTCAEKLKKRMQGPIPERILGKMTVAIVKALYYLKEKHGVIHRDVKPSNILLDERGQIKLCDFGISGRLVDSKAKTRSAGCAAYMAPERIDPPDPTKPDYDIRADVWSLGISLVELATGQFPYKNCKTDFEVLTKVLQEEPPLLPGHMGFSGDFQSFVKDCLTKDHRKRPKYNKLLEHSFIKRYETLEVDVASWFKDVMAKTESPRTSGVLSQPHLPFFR
Outline: (§1)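 DNA-tagged kinases expressed in HEK-293 cells compete between test compound and immobilized ligand on blocked beads. Bound kinase is eluted and quantified by qPCR of the DNA tag. Compounds were tested at the indicated final concentrations, prepared from 10 mM stocks.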

JNK1 = target: T3, JNK1 (Homo sapiens, UniProt P45983); assay: KINOMEscan competition binding assay, selectivity against off-target JNK1; details: concentration of 100 nM
T3 construct: M1/Q384; host or cells: HEK-293
Outline: as §1

MKK4 = target: T4, MKK4 (Homo sapiens, UniProt P45985); assay: KINOMEscan competition binding assay, MKK4 potency; details: concentration of 100 nM
T4 construct: S84/D399; host or cells: HEK-293
T4 sequence (P45985 84-399): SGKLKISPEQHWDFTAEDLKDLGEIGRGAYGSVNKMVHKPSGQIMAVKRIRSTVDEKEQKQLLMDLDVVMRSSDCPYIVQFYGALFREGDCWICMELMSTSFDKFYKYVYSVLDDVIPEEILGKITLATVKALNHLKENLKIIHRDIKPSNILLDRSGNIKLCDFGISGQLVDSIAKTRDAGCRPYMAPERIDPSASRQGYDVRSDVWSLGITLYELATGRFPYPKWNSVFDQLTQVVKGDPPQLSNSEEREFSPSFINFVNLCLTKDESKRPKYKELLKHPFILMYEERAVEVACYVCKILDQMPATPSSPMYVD
Outline: as §1

MEKK2 = target: T5, MEKK2 (Homo sapiens, UniProt Q9Y2U5); assay: Radiometric protein kinase assay, MEKK2; assay type: biochemical; details: substrate Casein, ATP 0.2 μM; read-out: MEKK2, potency derived from IC50-values
T5 construct: purchased ProQinase #0583-0000-1
T5 sequence (Q9Y2U5 1-619): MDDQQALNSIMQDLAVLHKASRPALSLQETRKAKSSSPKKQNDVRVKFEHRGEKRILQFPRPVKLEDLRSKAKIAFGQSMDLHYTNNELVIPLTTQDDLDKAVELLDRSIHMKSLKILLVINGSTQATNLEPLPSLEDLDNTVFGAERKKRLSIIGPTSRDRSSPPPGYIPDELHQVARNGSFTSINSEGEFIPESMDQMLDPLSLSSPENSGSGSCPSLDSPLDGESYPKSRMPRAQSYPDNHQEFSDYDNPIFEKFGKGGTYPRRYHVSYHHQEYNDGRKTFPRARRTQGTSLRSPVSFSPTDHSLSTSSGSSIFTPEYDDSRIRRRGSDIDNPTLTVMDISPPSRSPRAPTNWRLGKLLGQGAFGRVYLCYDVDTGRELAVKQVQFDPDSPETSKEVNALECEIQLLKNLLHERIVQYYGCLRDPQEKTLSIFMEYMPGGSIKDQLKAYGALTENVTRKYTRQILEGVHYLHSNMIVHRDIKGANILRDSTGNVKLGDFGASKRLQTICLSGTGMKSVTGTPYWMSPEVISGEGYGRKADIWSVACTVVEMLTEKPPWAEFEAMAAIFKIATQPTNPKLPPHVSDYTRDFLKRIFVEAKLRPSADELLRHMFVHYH
Outline: (§2)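 Kinase activity measured radiometrically: stopped reactions were captured on filter plates, washed with 150 mM H3PO4 and ethanol, and incorporated radioactivity counted by liquid scintillation.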

BRaf = BRaf (Homo sapiens, UniProt P15056); assay: KINOMEscan competition binding assay, selectivity against off-target BRaf; details: concentration of 100 nM
Outline: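 Competition binding: test compound competes with an immobilized ligand for DNA-tagged BRaf, and kinase captured on the ligand is quantified by qPCR of the DNA tag. Compounds from 10 mM stocks were tested at the indicated final concentrations.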

MKK4 active = target: T6, MKK4 active (Homo sapiens, UniProt P45985); assay: Radiometric protein kinase assay, MKK4 active; assay type: biochemical; details: substrate JNK1 KRKR, ATP 0.2 μM, read-out: MKK4, potency derived from IC50-values
T6 construct: purchased ProQinase #0948-0000-1
T6 sequence (P45985 1-399): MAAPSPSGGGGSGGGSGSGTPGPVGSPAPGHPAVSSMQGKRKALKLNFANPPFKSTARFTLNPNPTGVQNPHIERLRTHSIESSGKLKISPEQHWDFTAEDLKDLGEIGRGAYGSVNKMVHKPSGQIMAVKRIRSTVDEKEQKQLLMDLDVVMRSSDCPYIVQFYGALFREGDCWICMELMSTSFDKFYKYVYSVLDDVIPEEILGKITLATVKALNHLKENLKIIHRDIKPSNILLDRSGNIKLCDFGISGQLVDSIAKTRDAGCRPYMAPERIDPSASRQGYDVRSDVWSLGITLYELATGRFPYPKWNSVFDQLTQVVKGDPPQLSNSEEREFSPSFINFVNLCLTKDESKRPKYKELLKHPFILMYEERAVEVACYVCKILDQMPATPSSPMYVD
Outline: as §2

T3 sequence (P45983 1-384 isoform P45983-2): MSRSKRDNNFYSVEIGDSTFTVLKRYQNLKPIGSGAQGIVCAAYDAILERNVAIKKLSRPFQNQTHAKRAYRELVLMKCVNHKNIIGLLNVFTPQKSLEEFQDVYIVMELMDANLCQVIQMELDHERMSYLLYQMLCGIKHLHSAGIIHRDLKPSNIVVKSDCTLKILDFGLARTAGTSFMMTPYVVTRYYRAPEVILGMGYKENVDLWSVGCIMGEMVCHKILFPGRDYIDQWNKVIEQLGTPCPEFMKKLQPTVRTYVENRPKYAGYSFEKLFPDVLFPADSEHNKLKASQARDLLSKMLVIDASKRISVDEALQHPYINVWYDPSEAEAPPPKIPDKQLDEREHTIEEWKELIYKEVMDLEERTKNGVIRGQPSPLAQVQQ
Chain of BRaf (P15056 whole entry): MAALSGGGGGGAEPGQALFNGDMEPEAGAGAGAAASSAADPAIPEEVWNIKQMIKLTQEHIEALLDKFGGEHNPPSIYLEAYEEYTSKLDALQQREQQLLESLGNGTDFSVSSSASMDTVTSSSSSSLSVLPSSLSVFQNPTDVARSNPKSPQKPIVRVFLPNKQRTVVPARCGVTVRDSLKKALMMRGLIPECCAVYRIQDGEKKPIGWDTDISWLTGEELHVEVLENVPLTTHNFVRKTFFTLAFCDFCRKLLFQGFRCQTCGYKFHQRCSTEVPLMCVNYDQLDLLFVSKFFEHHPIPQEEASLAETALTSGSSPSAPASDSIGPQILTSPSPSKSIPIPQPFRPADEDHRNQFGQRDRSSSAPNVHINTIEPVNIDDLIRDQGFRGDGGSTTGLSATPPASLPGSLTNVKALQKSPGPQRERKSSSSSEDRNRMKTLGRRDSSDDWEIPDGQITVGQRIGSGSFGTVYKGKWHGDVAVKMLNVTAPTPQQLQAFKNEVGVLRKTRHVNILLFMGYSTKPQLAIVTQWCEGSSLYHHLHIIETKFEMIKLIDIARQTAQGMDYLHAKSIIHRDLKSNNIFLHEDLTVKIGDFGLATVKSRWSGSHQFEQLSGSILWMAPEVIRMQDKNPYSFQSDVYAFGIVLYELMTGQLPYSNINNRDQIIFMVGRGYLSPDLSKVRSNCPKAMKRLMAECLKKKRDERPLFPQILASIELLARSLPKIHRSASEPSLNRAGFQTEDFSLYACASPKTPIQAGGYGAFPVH

| Structure (SMILES) | IC50 (MKK4-MEKK2 mix) | Selectivity vs. MKK7, ratio PoC(MKK7)/PoC(MKK4) (MKK7) | Selectivity vs. JNK1, ratio PoC(JNK1)/PoC(MKK4) (JNK1) | MKK4, residual percent of control binding (PoC) (MKK4) | IC50 (MEKK2) | Selectivity vs. BRaf, ratio PoC(BRaf)/PoC(MKK4) (BRaf) | IC50 (MKK4 active) |
| --- | --- | --- | --- | --- | --- | --- | --- |
| CCCS(=O)(=O)Nc1ccc(F)c(C(=O)c2n[nH]c3ncc(-c4ccccc4OC)cc23)c1F [Example 14, N-(2,4-difluoro-3-(5-(2-methoxyphenyl)-1H-pyrazo-lo[3,4-b]pyridine-3-carbonyl)-phenyl)propane-1-sulfon-amide] | 1000 to 10000 nM | +++ (PoC(MKK7)/PoC(MKK4) ≥ 30) | ++ (30 > PoC(JNK1)/PoC(MKK4) ≥ 10) | ++ (1 ≤ PoC < 10) | > 10000 nM | +++ (PoC(BRaf)/PoC(MKK4) ≥ 30) | 500 to 1000 nM |
| CCCS(=O)(=O)Nc1ccc(F)c(C(=O)c2n[nH]c3ncc(-c4ccc(S(N)(=O)=O)cc4)cc23)c1F [Example 15, 4-(3-(2,6-difluoro-3-(propyl-sulfonamido)benzoyl)-1H-pyrazolo[3,4-b]pyridin-5-yl)benzene-sulfonamide] | 1000 to 10000 nM | +++ (PoC(MKK7)/PoC(MKK4) ≥ 30) | +++ (PoC(JNK1)/PoC(MKK4) ≥ 30) | +++ (PoC < 1) | 1000 to 10000 nM | + (10 > PoC(BRaf)/PoC(MKK4) ≥ 3) | < 500 nM |
| CCCS(=O)(=O)Nc1ccc(F)c(C(=O)c2n[nH]c3ncc(-c4ccc(O)cc4)cc23)c1F [Example 19, N-(2,4-difluoro-3-(5-(4-hydroxyphenyl)-1H-pyrazo-lo[3,4-b]pyridine-3-carbonyl)-phenyl)propane-1-sulfon-amide] | 1000 to 10000 nM | +++ (PoC(MKK7)/PoC(MKK4) ≥ 30) | +++ (PoC(JNK1)/PoC(MKK4) ≥ 30) | +++ (PoC < 1) | 1000 to 10000 nM | ++ (30 > PoC(BRaf)/PoC(MKK4) ≥ 10) | < 500 nM |
| CCCS(=O)(=O)Nc1ccc(F)c(C(=O)c2n[nH]c3ncc(-c4cccc(O)c4)cc23)c1F [Example 37, N-(2,4-difluoro-3-(5-(3-hydroxyphenyl)-1H-pyrazo-lo[3,4-b]pyridine-3-carbonyl)phenyl)propane-1-sulfon-amide] | 500 to 1000 nM | +++ (PoC(MKK7)/PoC(MKK4) ≥ 30) | ++ (30 > PoC(JNK1)/PoC(MKK4) ≥ 10) | ++ (1 ≤ PoC < 10) | 1000 to 10000 nM | + (10 > PoC(BRaf)/PoC(MKK4) ≥ 3) | < 500 nM |
| CCCS(=O)(=O)Nc1ccc(F)c(C(=O)c2n[nH]c3ncc(-c4ccccc4Cl)cc23)c1F [Example 9, N-(3-(5-(2-chlorophenyl)-1H-pyrazolo[3,4-b]pyridine-3-carbonyl)-2,4-difluorophenyl)-propane-1-sulfonamide] | 1000 to 10000 nM | ++ (30 > PoC(MKK7)/PoC(MKK4) ≥ 10) | ++ (30 > PoC(JNK1)/PoC(MKK4) ≥ 10) | ++ (1 ≤ PoC < 10) | 1000 to 10000 nM | + (10 > PoC(BRaf)/PoC(MKK4) ≥ 3) | 500 to 1000 nM |
| CCCS(=O)(=O)Nc1ccc(F)c(C(=O)c2n[nH]c3ncc(-c4ccc(S(=O)(=O)NC(C)=O)cc4)cc23)c1F [Example 51k, N-((4-(3-(2,6-difluoro-3-(propylsulfonamido)benzoyl)-1H-pyrazolo[3,4-b]pyridin-5-yl)phenyl)sulfonyl)acetamide] | < 500 nM | +++ (PoC(MKK7)/PoC(MKK4) ≥ 30) | +++ (PoC(JNK1)/PoC(MKK4) ≥ 30) | +++ (PoC < 1) | > 10000 nM | O (PoC(BRaf)/PoC(MKK4) < 3) | < 500 nM |
| CCCS(=O)(=O)Nc1ccc(F)c(C(=O)c2n[nH]c3ncc(-c4cccc(OC)c4)cc23)c1F [Example 17, N-(2,4-difluoro-3-(5-(3-methoxyphenyl)-1H-pyrazo-lo[3,4-b]pyridine-3-carbonyl)-phenyl)propane-1-sulfon-amide] | 1000 to 10000 nM | ++ (30 > PoC(MKK7)/PoC(MKK4) ≥ 10) | ++ (30 > PoC(JNK1)/PoC(MKK4) ≥ 10) | ++ (1 ≤ PoC < 10) | > 10000 nM | + (10 > PoC(BRaf)/PoC(MKK4) ≥ 3) | 1000 to 10000 nM |
| CCCS(=O)(=O)Nc1ccc(F)c(C(=O)c2n[nH]c3ncc(-c4cccc(N)c4)cc23)c1F [Example 27, N-(3-(5-(3-aminophenyl)-1H-pyrazolo[3,4-b]pyridine-3-carbonyl)-2,4-difluorophenyl)-propane-1-sulfonamide] | 500 to 1000 nM | +++ (PoC(MKK7)/PoC(MKK4) ≥ 30) | +++ (PoC(JNK1)/PoC(MKK4) ≥ 30) | ++ (1 ≤ PoC < 10) | 1000 to 10000 nM | O (PoC(BRaf)/PoC(MKK4) < 3) | < 500 nM |
